Type in all cases: cell-based, human
For test [1], the system named is Non-cancer cells (CK8/18-) of patient-derived NSCLC cultures. Kind of test: Cytotoxicity in patient-derived NSCLC cultures, non-cancer cells. Particulars: Homo sapiens, 168 h, 7 days treatment. The procedure:
(§1) Tissue samples were collected during surgery, and the NSCLC diagnosis, histological grade, stage, necrosis, and lymph node invasion status were determined by histopathological analysis. […] The surgical specimens were placed in a sterile tube containing antibiotic-antimycotic solution (Sigma-Aldrich Chemie GmbH, Taufkirchen, Germany) and immediately transported to the research laboratory for further processing.
(§2) Upon arrival, the tissue was manually chopped with a surgical blade in a Petri dish under sterile conditions. The samples were cut into 3–5 mm pieces and further dissociated using the Tumor Dissociation Kit (Miltenyi Biotec, Bergisch Gladbach, Germany). The Tumor Dissociation Kit was used to dissociate the cells from the tumor tissue according to the manufacturer’s instructions. The samples were incubated in a 37 °C orbital shaker (KS 4000 ic control, IKA, Königswinter, Germany) at 300 rpm for 90 min. After incubation, the dissociated tissue was placed in DMEM/Ham’s F12 (1:3 ratio) growth medium supplemented with 5% fetal bovine serum (Corning, NY, USA), antibiotic-antimycotic solution, 4 µg/mL hydrocortisone (Sigma-Aldrich Chemie GmbH, Taufkirchen, Germany), 1 µg/mL insulin (Sigma-Aldrich Chemie GmbH, Taufkirchen, Germany), 10 ng/mL epidermal growth factor (BioLegend, San Diego, CA, USA), and 24 µg/mL adenine (Sigma-Aldrich Chemie GmbH, Taufkirchen, Germany). The DMEM and Ham’s F12 growth media were purchased from Sigma-Aldrich Chemie GmbH (Taufkirchen, Germany).
(§3) The dissociated tissue was cultured in T-25 cell culture flasks until cell attachment was observed before the medium was replaced. If no cell attachment was achieved within 7 days, the sample was discarded. Successful patient-derived cultures were maintained at 37 °C in a humidified atmosphere with 5% CO2 and grown to confluence before undergoing further experiments. […] Partial trypsinization was performed by detaching the fibroblast-like cells with 1 mL of 0.05% trypsin for 1 min at 37 °C, followed by 2 min at room temperature (RT).
(§4) Vinorelbine and pemetrexed were purchased from Selleckchem (Houston, TX, USA). Carboplatin, cisplatin, docetaxel, etoposide, gemcitabine, gefitinib, and paclitaxel were purchased from Sigma-Aldrich Chemie GmbH (Taufkirchen, Germany). The cisplatin, carboplatin, and gemcitabine were dissolved in sterile water, while the etoposide, docetaxel, vinorelbine, paclitaxel, gefitinib, and pemetrexed were dissolved in DMSO and stored at −20 °C. Before treatment, all the stock solutions were freshly diluted in sterile water.
(§5) The primary cells were seeded in black, clear bottom 384-well cell culture microplates (Thermo Fisher Scientific, Waltham, MA, USA) in 50 µL of cell growth medium at a density of 1000 cells per well. The compounds were administered 72 h after seeding. The treatment lasted 7 days.
(§6) The immunofluorescence assay for the quantification of MDR markers was optimized to distinguish cancer cells from stromal cells using a cytokeratin 8/18 (CK8/18) antibody cocktail. The cells were fixed with 4% paraformaldehyde for 20 min at RT and washed three times with PBS using the Wellwash Versa microplate washer (Thermo Fisher Scientific, Waltham, MA, USA). The cells were then blocked with 2% bovine serum albumin (BSA) in PBS for 1 h at RT. […] Co-immunostaining with antibodies against MDR markers was performed to detect the presence of ABCB1, ABCC1, and ABCG2 in both the cancer and stromal cells. […] The secondary antibodies were incubated with the cells at RT for 2 h in the dark. […] Finally, the cells were washed three times with PBS and stored at 4 °C in the dark before imaging.

Test [2] concerns ABCB1 expression in cancer cells (CK8/18+). The test is described as follows: Immunofluorescence assay of ABCB1 expression in patient-derived NSCLC cultures. Particulars: 7 days. The procedure:
as §1, §2, §3, §4, §5, §6

The subject of test [3] is ABCC1 expression in non-cancer cells (CK8/18-). The test is described as follows: Immunofluorescence assay of ABCC1 expression in patient-derived NSCLC cultures, non-cancer cells. The following applies: sample TR58, chemotherapeutics, 7 days. The procedure:
as §1, §2, §3, §4, §5, §6

For test [4], the system named is ABCG2 expression in non-cancer cells (CK8/18-). The test is described as follows: Immunofluorescence assay of ABCG2 expression in patient-derived NSCLC cultures, non-cancer cells. Particulars: sample TR65, chemotherapeutics, 7 days. How it is done: as §1
Upon arrival, the tissue was manually chopped with a surgical blade in a Petri dish under sterile conditions. The samples were cut into 3–5 mm pieces and further dissociated using the Tumor Dissociation Kit (Miltenyi Biotec, Bergisch Gladbach, Germany). The Tumor Dissociation Kit was used to dissociate the cells from the tumor tissue according to the manufacturer’s instructions. The samples were incubated in a 37 °C orbital shaker (KS 4000 ic control, IKA, Königswinter, Germany) at 300 rpm for 90 min. […]
The immunofluorescence assay for the quantification of MDR markers was optimized to distinguish cancer cells from stromal cells using a cytokeratin 8/18 (CK8/18) antibody cocktail. […]

Turning to `Nc1ccn([C@@H]2O[C@H](CO)[C@@H](O)C2(F)F)c(=O)n1` [Gemcitabine, gemcitabine], the IC50 in test [1] (culture TR58, non-cancer cells (CK8/18-)) was 3.07 µM; in test [1] (culture TR64, non-cancer cells (CK8/18-)), 7.06 µM; in test [1] (culture TR65, non-cancer cells (CK8/18-)), 0.351 µM; in test [1] (culture TR84, non-cancer cells (CK8/18-)), 0.491 µM; in test [1] (culture TR87, non-cancer cells (CK8/18-)), 1.13 µM. In addition, the ABCB1 Expression result in test [2] (culture TR58, cancer cells (CK8/18+)) is reported as “no change”; in test [2] (culture TR64, cancer cells (CK8/18+)) it was “increase (An increase in ABCB1, ABCC1, or ABCG2 expression of at least 20% at a minimum of one concentration is shown in the table.)”; in test [2] (culture TR65, cancer cells (CK8/18+)), “increase (An increase in ABCB1, ABCC1, or ABCG2 expression of at least 20% at a minimum of one concentration is shown in the table.)”; in test [2] (culture TR84, cancer cells (CK8/18+)), “increase (An increase in ABCB1, ABCC1, or ABCG2 expression of at least 20% at a minimum of one concentration is shown in the table.)”; in test [2] (culture TR87, cancer cells (CK8/18+)) it was “increase (An increase in ABCB1, ABCC1, or ABCG2 expression of at least 20% at a minimum of one concentration is shown in the table.)”. In addition, the “ABCC1 expression in CK8/18− cells” value in test [3] is listed as “elevated”. The “ABCG2 expression in CK8/18− cells” value in test [4] is listed as “elevated”.

By IC50 is commonly meant the point on the concentration scale where inhibition reaches its midpoint.

Source of the values: PMC10743086, “Immunofluorescence-Based Assay for High-Throughput Analysis of Multidrug Resistance Markers in Non-Small Cell Lung Carcinoma Patient-Derived Cells” (Diagnostics, 2023).
